Where two headings read alike, the source gives them in different places.

The source of these data is publication PMC8791944, “GLUT3 inhibitor discovery through in silico ligand screening and in vivo validation in eukaryotic expression systems” (Scientific Reports, 2022).

The assay concerns the target T1, GLUT2∆loopS_Q455R (Homo sapiens, UniProt P11168, Q455R, form not given).
T1 sequence (P11168 1-524 Q455R): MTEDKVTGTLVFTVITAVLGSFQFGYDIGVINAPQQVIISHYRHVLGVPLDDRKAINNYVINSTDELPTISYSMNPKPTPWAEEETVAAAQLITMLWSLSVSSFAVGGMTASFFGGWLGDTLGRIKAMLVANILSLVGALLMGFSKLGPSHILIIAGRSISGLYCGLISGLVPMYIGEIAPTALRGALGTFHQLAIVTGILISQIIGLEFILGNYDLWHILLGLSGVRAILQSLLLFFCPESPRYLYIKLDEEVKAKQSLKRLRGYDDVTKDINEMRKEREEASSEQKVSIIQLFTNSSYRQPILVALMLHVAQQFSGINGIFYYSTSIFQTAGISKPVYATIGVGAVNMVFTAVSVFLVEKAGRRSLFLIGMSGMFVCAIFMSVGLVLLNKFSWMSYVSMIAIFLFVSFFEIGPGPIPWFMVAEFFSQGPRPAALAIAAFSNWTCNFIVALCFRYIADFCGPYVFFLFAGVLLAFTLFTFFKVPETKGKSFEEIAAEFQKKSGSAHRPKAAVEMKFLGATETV
Description: Glucose transport assay, GLUT2∆loopS_Q455R expressed in hxt^0 yeast cells EBY.S7. Type of assay: cell-based. From the text: The most studied GLUTs are Class 1 GLUTs (GLUT1-4) and a Class 2 GLUT, GLUT5 (a fructose-only transporter). GLUT3 sequence homology and identity is 79% and 64%, 71% and 52%, 74% and 57%, and 60% and 38% with GLUT1, GLUT2, GLUT4, and GLUT5, respectively. The hxt^0 yeast cell systems expressing functional GLUT1-4[65],[69] and GLUT5[66] allow us to determine the in vivo transport activity (substrate uptake by a GLUT into whole cells) for individual GLUTs and establish GLUT3 inhibitor selectivity for these transporters. The transport assay was performed as described for GLUT3, but at the substrate concentrations that correspond to the KM for each GLUT (i.e., 5 mM glucose for GLUT1 and GLUT4[65], 15 mM glucose for GLUT2∆loopS_Q455R[63], and 10 mM fructose for GLUT5S72Y[66]).
The transport activity was assayed as the substrate uptake in hexose transporter-deficient yeast cells expressing functional GLUT1[65], GLUT2[69], GLUT4[65], or GLUT5[66]. Substrate final concentration in the assay matched the corresponding substrate KM and was 5 mM glucose for GLUT1 and GLUT4, 15 mM glucose for GLUT2∆loopS_Q455R, and 10 mM fructose for GLUT5S72Y. Transport assay was initiated by the addition of C^14-labeled substrate and stopped after 10 min (see “Materials and methods” for details). […] Standard deviations for experimental points come from at least three independent measurements.
The plasmids containing functional constructs of GLUT1-5 were transformed in the corresponding hxt^0 strains[65],[66],[73] (EBY.VW4000 for GLUT5S72Y, EBY.S7 for GLUT1, GLUT2∆loopS_Q455R, GLUT3 and GLUT3S66Y, and SDY.022 for GLUT4) and grown on 2% (w/v) agar plates of the respective media supplemented with 1% (w/v) maltose. An initial culture of ~ 10 ml was started with a few colonies and grown for 2–3 days if the media was SC-uracil with 1% (w/v) maltose (GLUT1, GLUT3, GLUT4) or 1–2 days if the media was YEP with 1% (w/v) maltose and 100 µg/ml geneticin G418 (GLUT2∆loopS_Q455R and GLUT5S72Y). Cells were washed once in the corresponding media in which maltose was substituted with 0.1–2% hexose substrate for the expressing GLUT (i.e., SC-uracil, 2% (w/v) glucose for GLUT1; SC-uracil, 0.2% (w/v/) glucose for GLUT3 and GLUT4; YEP, 0.2% (w/v) glucose, 100 µg/ml geneticin G418 for GLUT2∆loopS_Q455R, and YEP, 2% (w/v) fructose for GLUT5 S72Y). Then, cells were transferred in the same media so that OD600nm ~ 0.5 and grown further for 1–2 days.
For transport activity assay, cells in the hexose media were centrifuged (1000×g, 5 min, room temperature), washed once with PBS buffer (10 mM Na2HPO4, 1.8 mM KH2PO4, 2.7 mM KCl, 137 mM NaCl, pH 7.4), and resuspended in PBS buffer at an OD600nm ~ 10; each assay contained 100 µl of this cell solution. Transport activity assay was started by adding C^14-hexose at a substrate concentration corresponding to the respective KM (5 mM glucose for GLUT1 or GLUT4, 3 mM glucose for GLUT3 or 1.5 mM glucose for GLUT3S66Y, 15 mM glucose for GLUT2∆loopS_Q455R, and 10 mM fructose for GLUT5S72Y); for determining the glucose KM in GLUT3 and GLUT3S66Y, substrate concentrations were varied accordingly. […] The filtration membranes were transferred into scintillation vials with 10 ml of Scintillation Solution (BioSafeII; Research Products International, Mount Prospect, IL, USA), and vortexed briefly. The radioactivity was determined with a scintillation counter (Tri-carb 2900TR, Perkin Elmer, USA).

Where [1] appears, read: GLUT2∆loopS_Q455R in hxt^0 yeast cells, 15 mM glucose; read-out: IC50 for GLUT2 transport inhibition.

Regarding `COc1ccccc1-n1c(/C=C/c2ccc(O)cc2)nc2ccc(Br)cc2c1=O` [G3iB, 6-bromo-2-[(E)-2-(4-hydroxyphenyl)ethenyl]-3-(2-methoxyphenyl)quinazolin-4(3H)-one], where the note is “read-out: IC50 for GLUT2 transport inhibition; GLUT2∆loopS_Q455R in hxt^0 yeast cells, 15 mM glucose”, the IC50 was above 50 µM.
For `Cc1cccnc1OC1CCN(c2cc(N3CCCC3CO)ncn2)CC1` (stereo not shown) [G3iC], the half-maximal inhibitory concentration (IC50) under setting [1] was above 50 µM.
Same read-out and setting: the value for `Cc1ccccc1CN(Cc1nnc(C(C)(C)C)o1)c1ccc2nc(O)[nH]c2c1` [G3iF] was 24.7 ± 8.4 µM.
On to `CC(=O)Nc1ccc(S(=O)(=O)Nc2ccc(Nc3cc(N(C)C)nc(C)n3)cc2)cc1` [G3iA, N-(4-{[(4-{[6-(dimethylamino)-2-methylpyrimidin-4-yl]amino}phenyl)amino]sulfonyl}phenyl)acetamide], for which the IC50 under setting [1] is 29.4 ± 6.3 µM. Also, under “IC50 GLUT2 versus IC50 GLUT3”, the “Potency for GLUT2 relative to GLUT3 (IC50 ratio, weaker for GLUT2)” value was “~ fourfold”.
On to `O=C(Nc1cccc(Cl)c1)c1cccc(NC(=O)c2cccc([N+](=O)[O-])c2)c1` [G3iE, N-{3-[(3-chloroanilino)carbonyl]phenyl}-3-nitrobenzamide], for which the IC50 under setting [1] was above 50 µM.
Turning to `Cc1cc(NC(=O)CCC2Cc3ccccc3NC2=O)nc(-c2ccccc2)n1` (stereo not shown) [G3iD], under setting [1], the IC50 amounted to 40 ± 3.7 µM.

A word on the IC50: it is the concentration that inhibits the measured activity by half.
